Measurements taken from ChEMBL document CHEMBL2150926 (J Med Chem, 2011).
Converted amounts (≈) assume the structure as drawn.

Key:
[1] = biological target: Protein kinase C alpha type (Homo sapiens, UniProt P17252); assay: Inhibition of PKCalpha by scintillation proximity assay
[2] = biological target: Protein kinase C beta type (Homo sapiens, UniProt P05771); assay: Inhibition of PKCbeta-1 by scintillation proximity assay
[3] = biological target: Protein kinase C delta type (Homo sapiens, UniProt Q05655); assay: Inhibition of PKCdelta by scintillation proximity assay
Chain of Protein kinase C delta type (Q05655 whole entry): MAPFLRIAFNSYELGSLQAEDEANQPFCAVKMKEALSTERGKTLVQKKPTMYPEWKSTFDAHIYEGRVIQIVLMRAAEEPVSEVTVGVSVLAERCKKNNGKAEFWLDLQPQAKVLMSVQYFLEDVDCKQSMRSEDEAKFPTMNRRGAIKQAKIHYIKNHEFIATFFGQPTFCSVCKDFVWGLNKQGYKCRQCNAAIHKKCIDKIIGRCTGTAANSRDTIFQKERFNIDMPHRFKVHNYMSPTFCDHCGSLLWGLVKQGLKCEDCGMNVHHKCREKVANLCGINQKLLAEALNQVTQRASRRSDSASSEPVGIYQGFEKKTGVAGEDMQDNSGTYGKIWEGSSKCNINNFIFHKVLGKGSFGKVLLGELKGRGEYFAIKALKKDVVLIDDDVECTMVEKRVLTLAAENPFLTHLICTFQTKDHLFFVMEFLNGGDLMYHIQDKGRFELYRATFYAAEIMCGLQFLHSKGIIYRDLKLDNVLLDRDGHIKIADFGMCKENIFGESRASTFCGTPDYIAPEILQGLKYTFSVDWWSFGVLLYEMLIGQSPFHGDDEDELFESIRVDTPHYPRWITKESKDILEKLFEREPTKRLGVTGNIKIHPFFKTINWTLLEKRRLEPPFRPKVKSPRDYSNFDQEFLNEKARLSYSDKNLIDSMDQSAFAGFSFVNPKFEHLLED

[4] = biological target: T1, Protein kinase C epsilon type (Homo sapiens, UniProt Q02156); assay: Inhibition of PKCepsilon by scintillation proximity assay
T1 sequence (Q02156 whole entry): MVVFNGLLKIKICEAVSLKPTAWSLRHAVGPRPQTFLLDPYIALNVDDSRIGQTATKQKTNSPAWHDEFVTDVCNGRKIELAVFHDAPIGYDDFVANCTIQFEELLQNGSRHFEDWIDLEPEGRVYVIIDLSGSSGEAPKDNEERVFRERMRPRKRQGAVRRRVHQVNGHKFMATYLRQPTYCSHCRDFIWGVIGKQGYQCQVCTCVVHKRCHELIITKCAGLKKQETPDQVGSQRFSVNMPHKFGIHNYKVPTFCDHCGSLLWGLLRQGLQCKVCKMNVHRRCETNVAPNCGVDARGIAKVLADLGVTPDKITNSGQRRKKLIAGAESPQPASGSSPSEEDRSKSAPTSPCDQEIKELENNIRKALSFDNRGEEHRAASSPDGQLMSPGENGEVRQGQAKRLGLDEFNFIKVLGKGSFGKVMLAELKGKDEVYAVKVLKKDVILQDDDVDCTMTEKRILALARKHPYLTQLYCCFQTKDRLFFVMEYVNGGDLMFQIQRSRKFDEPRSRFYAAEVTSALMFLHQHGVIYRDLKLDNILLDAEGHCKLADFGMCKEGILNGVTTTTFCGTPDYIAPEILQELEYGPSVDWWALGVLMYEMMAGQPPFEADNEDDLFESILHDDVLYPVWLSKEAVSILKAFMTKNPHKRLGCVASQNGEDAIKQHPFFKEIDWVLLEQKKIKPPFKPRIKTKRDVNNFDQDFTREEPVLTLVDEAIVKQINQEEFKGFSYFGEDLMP

[5] = biological target: Protein kinase C eta type (Homo sapiens, UniProt P24723); assay: Inhibition of PKCeta by scintillation proximity assay
Chain of Protein kinase C eta type (P24723 whole entry): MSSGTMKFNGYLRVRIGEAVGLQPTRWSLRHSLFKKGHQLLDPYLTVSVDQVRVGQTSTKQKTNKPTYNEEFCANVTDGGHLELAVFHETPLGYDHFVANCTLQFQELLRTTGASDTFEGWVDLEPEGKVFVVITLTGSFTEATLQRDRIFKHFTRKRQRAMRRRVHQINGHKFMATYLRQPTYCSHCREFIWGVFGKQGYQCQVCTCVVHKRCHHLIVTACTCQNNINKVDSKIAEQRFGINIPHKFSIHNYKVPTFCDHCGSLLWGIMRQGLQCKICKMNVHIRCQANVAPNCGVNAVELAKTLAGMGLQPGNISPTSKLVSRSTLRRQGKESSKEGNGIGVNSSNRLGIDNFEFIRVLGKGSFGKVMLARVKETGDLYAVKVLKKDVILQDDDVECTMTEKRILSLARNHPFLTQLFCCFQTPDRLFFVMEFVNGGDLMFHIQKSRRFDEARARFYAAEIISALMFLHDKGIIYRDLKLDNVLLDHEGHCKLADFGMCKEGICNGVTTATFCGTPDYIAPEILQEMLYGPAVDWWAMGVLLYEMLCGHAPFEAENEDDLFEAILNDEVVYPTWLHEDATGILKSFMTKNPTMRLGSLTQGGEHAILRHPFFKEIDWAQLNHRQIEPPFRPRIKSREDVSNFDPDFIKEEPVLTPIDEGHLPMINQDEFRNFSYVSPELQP

[6] = biological target: Protein kinase C theta type (Homo sapiens, UniProt Q04759); assay: Inhibition of PKCtheta by scintillation proximity assay
Chain of Protein kinase C theta type (Q04759 whole entry): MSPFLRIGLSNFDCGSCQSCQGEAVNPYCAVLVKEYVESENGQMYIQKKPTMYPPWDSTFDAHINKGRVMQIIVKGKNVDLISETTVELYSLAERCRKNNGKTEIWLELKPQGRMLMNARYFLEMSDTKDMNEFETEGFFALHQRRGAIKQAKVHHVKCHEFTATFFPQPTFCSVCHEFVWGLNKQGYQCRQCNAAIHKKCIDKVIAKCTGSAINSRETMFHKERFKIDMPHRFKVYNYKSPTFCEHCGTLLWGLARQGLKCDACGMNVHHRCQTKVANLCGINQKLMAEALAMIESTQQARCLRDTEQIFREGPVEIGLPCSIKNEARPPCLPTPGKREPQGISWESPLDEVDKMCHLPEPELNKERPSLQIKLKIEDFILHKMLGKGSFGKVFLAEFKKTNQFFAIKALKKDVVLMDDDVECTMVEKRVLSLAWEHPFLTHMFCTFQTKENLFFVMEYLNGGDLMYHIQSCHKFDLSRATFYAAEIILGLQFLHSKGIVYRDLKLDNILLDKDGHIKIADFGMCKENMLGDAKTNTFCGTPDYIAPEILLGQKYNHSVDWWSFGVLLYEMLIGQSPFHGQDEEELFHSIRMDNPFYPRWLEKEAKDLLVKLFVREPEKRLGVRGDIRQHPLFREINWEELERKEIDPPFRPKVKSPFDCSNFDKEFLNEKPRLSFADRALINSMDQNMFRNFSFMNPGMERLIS

[7] = Immunosuppressive activity in mouse lymphocytes assessed as alloantigen-induced T cell proliferation by mixed lymphocyte reaction assay; format: functional, cell-based
[8] = Immunosuppressive activity in human lymphocytes assessed as alloantigen-induced T cell proliferation by mixed lymphocyte reaction assay; format: functional, cell-based
[9] = Octanol-water partition coefficient, log P of the compound; format: physicochemical
[10] = Lipophilicity, log D of the compound at pH 6.8; format: physicochemical; conditions: buffer
[11] = Intrinsic solubility of the compound at pH 6.8; format: physicochemical; conditions: buffer, read-out: Intrinsic_solubility
P-gp (human) = assay: Efflux ratio of permeability from basolateral to apical to apical to basolateral in MDCK cells transfected with human p-gp gene; format: ADME, cell-based, Canis lupus familiaris; conditions: dog, MDCK-MDR1
Rattus norvegicus [12] = assay: Dose normalized AUC (0 to infinity) in OFA rat at 5 mg/kg, iv; format: ADME, organism-based; parameters: dose 5 mg/kg, route intravenous; conditions: in vivo
[13] = Volume of distribution at steady state in OFA rat at 5 mg/kg, iv; format: ADME, organism-based; parameters: dose 5 mg/kg, route intravenous; conditions: in vivo, read-out: Vdss
[14] = Elimination half life in OFA rat at 5 mg/kg, iv; format: ADME, organism-based; parameters: dose 5 mg/kg, route intravenous; conditions: in vivo, read-out: beta t1/2 (converted)
Rattus norvegicus [15] = assay: Dose normalized AUC (0 to infinity) in OFA rat 20 mg/kg, po; format: ADME, organism-based; parameters: dose 20 mg/kg, route oral; conditions: in vivo
[16] = Tmax in OFA rat at 20 mg/kg, po; format: ADME, organism-based; parameters: dose 20 mg/kg, route oral; conditions: in vivo
[17] = Oral bioavailability in OFA rat at 20 mg/kg; format: ADME, organism-based; conditions: in vivo
[18] = Intrinsic clearance in OFA rat liver microsomes at 20 mg/kg, po; format: ADME, Microsome; parameters: dose 20 mg/kg, route oral; conditions: read-out: CLH
Rattus norvegicus [19] = assay: AUC (0 to 24 hrs) in Wistar rat at 30 mg/kg, po administered as single dose; format: ADME, organism-based, Plasma; parameters: time < 24 hr, dose 30 mg/kg, route oral; conditions: in vivo
[20] = Total plasma clearance in OFA rat at 5 mg/kg, iv; format: ADME, organism-based; parameters: dose 5 mg/kg, route intravenous

Chain of Protein kinase C beta type (P05771 whole entry): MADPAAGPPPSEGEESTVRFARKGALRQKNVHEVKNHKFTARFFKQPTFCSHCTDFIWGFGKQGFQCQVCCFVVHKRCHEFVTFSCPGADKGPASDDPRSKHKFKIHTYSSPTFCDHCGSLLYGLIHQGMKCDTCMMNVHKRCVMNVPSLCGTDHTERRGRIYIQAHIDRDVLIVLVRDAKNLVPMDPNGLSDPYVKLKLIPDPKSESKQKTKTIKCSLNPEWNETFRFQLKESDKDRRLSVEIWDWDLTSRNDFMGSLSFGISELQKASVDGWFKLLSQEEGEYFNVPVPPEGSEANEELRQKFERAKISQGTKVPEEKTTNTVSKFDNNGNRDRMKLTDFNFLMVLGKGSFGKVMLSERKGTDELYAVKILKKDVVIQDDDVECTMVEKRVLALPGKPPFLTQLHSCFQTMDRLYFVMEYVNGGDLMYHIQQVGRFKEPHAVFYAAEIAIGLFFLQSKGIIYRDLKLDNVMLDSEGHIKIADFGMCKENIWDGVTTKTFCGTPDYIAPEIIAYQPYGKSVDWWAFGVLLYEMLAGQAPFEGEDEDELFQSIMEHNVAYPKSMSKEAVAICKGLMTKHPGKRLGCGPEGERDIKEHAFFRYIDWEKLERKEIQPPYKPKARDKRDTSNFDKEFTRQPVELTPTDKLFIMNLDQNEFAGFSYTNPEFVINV

## Cn1cc(C2=C(c3nc(N4CCNCC4)nc4ccccc34)C(=O)NC2=O)c2ccccc21
[1]
  IC50: 1.4 nM
[2]
  IC50: 1.4 nM
[3]
  IC50: 1 nM
[4]
  IC50: 3.8 nM
[5]
  IC50: 3.3 nM
[6]
  IC50: 1.2 nM
[7]
  IC50: 378 nM
[8]
  IC50: 99 nM
[9]
  logP: 2.3
[10]
  logD: 0.6
[11]
  solubility: 195 µg/mL (≈ 445 µM)
P-gp (human)
  efflux ratio: 64.4
Rattus norvegicus [12]
  AUC/dose: 671 ng·h/mL
[13]
  Vd: 10 L/kg
[14]
  half-life: 4.6 h
Rattus norvegicus [15]
  AUC/dose: 161 ng·h/mL
[16]
  Tmax: 0.5 h
[17]
  bioavailability: 24%
[18]
  microsomal CLint: 112 µL/min/mg
Rattus norvegicus [19]
  AUC: 1729 ng·h/g
[20]
  clearance: 25 mL/min/kg
